Laboratory results from patent US8183387B2, “Phenylpyrazole derivatives” (Taisho Pharmaceutical Co., Ltd, priority 2007, dated 2012).

Molecular target: human H3 receptor (Homo sapiens, UniProt Q9Y5N1)
Assay: H3 receptor binding test (R(−)-α-methyl[3H]histamine)
Parameters: purchased Euroscreen ES-392-M; host or cells: CHO-K1
Conditions: inhibition of R(−)-α-methyl[3H]histamine (2 nM) binding, membrane of human H3 receptor-expressing CHO-K1 cells
Protocol: A membrane preparation of human H3 receptor-expressing CHO-K1 cells (Euroscreen, ES-392-M, 15 μg protein/200 μl), R(−)-α-methyl[^3H]histamine (Amersham, TRK-1017, specific activity: 1.74 TBq/mmol, 2 nM) and a test drug were reacted at room temperature for 1 hour. After completion of the reaction, the reaction mixture was subjected to suction filtration through a 0.3% polyethyleneimine-treated glass filter (GF/C). The glass filter was washed five times with 50 mM Tris-HCl washing solution (pH 7.4) containing 5 mM EDTA. After washing, the glass filter was dried and a scintillator was added thereto, followed by measurement of radioactivity on the filter using a liquid scintillation counter.
A fixed concentration (2 nM) of R(−)-α-methyl[^3H]histamine was reacted under the above conditions with each test drug at various concentrations to obtain an inhibition curve.

Sequence of human H3 receptor (Q9Y5N1 whole entry): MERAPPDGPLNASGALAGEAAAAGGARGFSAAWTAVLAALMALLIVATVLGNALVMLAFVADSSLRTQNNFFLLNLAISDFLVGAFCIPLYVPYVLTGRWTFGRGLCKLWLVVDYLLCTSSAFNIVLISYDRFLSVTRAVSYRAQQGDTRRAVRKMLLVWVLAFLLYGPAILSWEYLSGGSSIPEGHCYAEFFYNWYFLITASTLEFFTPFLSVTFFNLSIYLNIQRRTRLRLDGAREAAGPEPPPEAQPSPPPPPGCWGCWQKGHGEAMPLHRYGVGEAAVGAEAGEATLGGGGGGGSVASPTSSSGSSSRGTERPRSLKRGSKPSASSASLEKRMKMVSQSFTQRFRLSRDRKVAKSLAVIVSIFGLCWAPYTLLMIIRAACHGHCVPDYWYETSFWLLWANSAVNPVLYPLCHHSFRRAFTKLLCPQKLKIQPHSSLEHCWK

| Structure (SMILES) | IC50 |
| --- | --- |
| CCOC(=O)c1cnn(-c2ccc(OCCCN3CCC[C@H]3C)cc2)c1 [Example 1, 1-(4-{3-[(2R)-2-methylpyrrolidin-1-yl]propoxy}phenyl)-1H-pyrazole-4-carboxylic acid ethyl ester] | 24 nM |
| C[C@H]1CCCN1CCCOc1ccc(-n2cc(C(N)=O)cn2)cc1 [Example 4, 1-(4-{3-[(2S)-2-methylpyrrolidin-1-yl]propoxy}phenyl)-1H-pyrazole-4-carboxamide] | 33 nM |
| O=C(c1cnn(-c2ccc(OCCCN3CCCC3)cc2)c1)N1CCOCC1 [Example 8, 4-({1-[4-(3-pyrrolidin-1-ylpropoxy)phenyl]-1H-pyrazol-4-yl}carbonyl)morpholine] | 24.2 nM |
| CC1CCC(C)N1CCCOc1ccc(-n2cc(C(=O)NC(C)(C)C)cn2)cc1 (stereo not drawn) [Example 12, N-tert-butyl-1-{4-[3-(2,5-dimethylpyrrolidin-1-yl)propoxy]phenyl}-1H-pyrazole-4-carboxamide] | 19.3 nM |
| CC(C)(C)NC(=O)c1cnn(-c2ccc(OCCCN3CCCC3)cc2)c1 [Example 13, N-tert-butyl-1-[4-(3-pyrrolidin-1-ylpropoxy)phenyl]-1H-pyrazole-4-carboxamide] | 6.1 nM |
| CCN(CC)CCCOc1ccc(-n2cc(C(=O)NC(C)(C)C)cn2)cc1 [Example 14, N-tert-butyl-1-{4-[3-(diethylamino)propoxy]phenyl}-1H-pyrazole-4-carboxamide] | 13.5 nM |
| CC1CCCN1CCCOc1ccc(-n2cc(C(=O)Nc3ccc(F)cc3)cn2)cc1 (stereo not drawn) [Example 15, N-(4-fluorophenyl)-1-{4-[3-(2-methylpyrrolidin-1-yl)propoxy]phenyl}-1H-pyrazole-4-carboxamide] | 1.8 nM |
| Cc1ccc(NC(=O)c2cnn(-c3ccc(OCCCN4CCCC4C)cc3)c2)cc1 (stereo not drawn) [Example 17, N-(4-methylphenyl)-1-{4-[3-(2-methylpyrrolidin-1-yl)propoxy]phenyl}-1H-pyrazole-4-carboxamide] | 3.9 nM |
| CC1CCCN1CCCOc1ccc(-n2cc(C(=O)N(C)C)cn2)cc1 (stereo not drawn) [Example 19, 1-{4-[3-(2-methylpyrrolidin-1-yl)-propoxy]-phenyl}-1H-pyrazole-4-carboxylic acid dimethylamide] | 5.1 nM |
| C[C@@H]1CCCN1CCCOc1ccc(-n2cc(C(=O)N(CCO)CCO)cn2)cc1 [Example 20, 1-(4-{3-[(2R)-2-methylpyrrolidin-1-yl]propoxy}phenyl)-1H-pyrazole-4-carboxylic acid bis-(2-hydroxyethyl)-amide] | 6.9 nM |
| CC1CCCN1CCCOc1ccc(-n2cc(C(=O)N3CCC3)cn2)cc1 (stereo not drawn) [Example 21, azetidin-1-yl-(1-{4-[3-(2-methylpyrrolidin-1-yl)propoxy]phenyl}-1H-pyrazol-4-yl)methanone] | 5.7 nM |
| C[C@@H]1CCCN1CCCOc1ccc(-n2cc(C(=O)N3CCC(F)(F)C3)cn2)cc1 [Example 22, 4-[(3,3-difluoropyrrolidin-1-yl)carbonyl]-1-(4-{3-[(2R)-2-methylpyrrolidin-1-yl]propoxy}phenyl)-1H-pyrazole] | 2.7 nM |
| C[C@@H]1CCCN1CCCOc1ccc(-n2cc(C(=O)c3ccc(F)cc3)cn2)cc1 [Example 23, (4-fluorophenyl)[1-(4-{3-[(2R)-2-methylpyrrolidin-1-yl]propoxy}phenyl)-1H-pyrazol-4-yl]methanone] | 2.2 nM |
| C[C@@H]1CCCN1CCCOc1ccc(-n2cc(C(=O)c3ccccc3)cn2)cc1 [Example 24, [1-(4-{3-[(2R)-2-methylpyrrolidin-1-yl]propoxy}phenyl)-1H-pyrazol-4-yl](phenyl)methanone] | 3.3 nM |
| CC1CCCN1CCCOc1ccc(-n2cc(C(=O)c3ccccn3)cn2)cc1 (stereo not drawn) [Example 25, (1-{4-[3-(2-methylpyrrolidin-1-yl)propoxy]phenyl}-1H-pyrazol-4-yl)(pyridin-2-yl)methanone] | 3.5 nM |
| C[C@@H]1CCCN1CCCOc1ccc(-n2cc([N+](=O)[O-])cn2)cc1 [Example 28, 1-(4-{3-[(2R)-2-methylpyrrolidin-1-yl]propoxy}phenyl)-4-nitro-1H-pyrazole] | 3.1 nM |
| C[C@H]1CCCN1CCCOc1ccc(-n2cc(N3CCCC3=O)cn2)cc1 [Example 31, 1-[1-(4-{3-[(2S)-2-methylpyrrolidin-1-yl]propoxy}phenyl)-1H-pyrazol-4-yl]pyrrolidine-2-one] | 5.1 nM |
| CC1CCCN1CCCOc1ccc(-n2cc(N3CCOC3=O)cn2)cc1 (stereo not drawn) [Example 34, 3-(1-{4-[3-(2-methylpyrrolidin-1-yl)propoxy]phenyl}-1H-pyrazol-4-yl)-1,3-oxazolidin-2-one] | 2.1 nM |

The remaining molecules from weak to strong by IC50, led by results:

| IC50 | Structure (SMILES) |
| --- | --- |
| 49.4 nM | CC1(C)CCCN1CCCOc1ccc(-n2cc(C(=O)N3CCOCC3)cn2)cc1 [Example 10, 4-[(1-{4-[3-(2,2-dimethylpyrrolidin-1-yl)propoxy]phenyl}-1H-pyrazol-4-yl)carbonyl]morpholine] |
| 10.8 nM | C[C@H]1CCCN1CCCOc1ccc(-n2cc(C#N)cn2)cc1 [Example 5, 1-(4-{3-[(2S)-2-methylpyrrolidin-1-yl]propoxy}phenyl)-1H-pyrazole-4-carbonitrile] |
| 8.5 nM | O=C(c1cnn(-c2ccc(OCCCN3CCCCC3)cc2)c1)N1CCOCC1 [Example 9, 4-({1-[4-(3-piperidin-1-ylpropoxy)phenyl]-1H-pyrazol-4-yl}carbonyl)morpholine] |
| 8.3 nM | O=C1CCCN1c1cnn(-c2ccc(OCCCN3CCCC3)cc2)c1 [Example 32, 1-{1-[4-(3-pyrrolidin-1-ylpropoxy)phenyl]-1H-pyrazol-4-yl}pyrrolidine-2-one] |
| 6.5 nM | C[C@@H]1CCCN1CCCOc1ccc(-n2cc(C(N)=O)cn2)cc1 [Example 2, 1-(4-{3-[(2R)-2-methylpyrrolidin-1-yl]propoxy}phenyl)-1H-pyrazole-4-carboxamide] |
| 5.9 nM | O=C(Nc1ccc(F)cc1)c1cnn(-c2ccc(OCCCN3CCCC3)cc2)c1 [Example 16, N-(4-fluorophenyl)-1-[4-(3-pyrrolidin-1-ylpropoxy)phenyl]-1H-pyrazole-4-carboxamide] |
| 4.6 nM | C[C@@H]1CCCN1CCCOc1ccc(-n2cc(C#N)cn2)cc1 [Example 3, 1-(4-{3-[(2R)-2-methylpyrrolidin-1-yl]propoxy}phenyl)-1H-pyrazole-4-carbonitrile] |
| 4 nM | CC1CCCN1CCCOc1ccc(-n2cc(N3CCCCC3=O)cn2)cc1 (stereo not drawn) [Example 36, 1-(1-{4-[3-(2-methylpyrrolidin-1-yl)propoxy]phenyl}-1H-pyrazol-4-yl)piperidin-2-one] |
| 3 nM | CC1CCCN1CCCOc1ccc(-n2cc(C(=O)NCc3ccc(F)cc3)cn2)cc1 (stereo not drawn) [Example 18, 1-{4-[3-(2-methylpyrrolidin-1-yl)-propoxy]-phenyl}-1H-pyrazole-4-carboxylic acid 4-fluorobenzylamide] |
| 2.6 nM | C[C@@H]1CCCN1CCCOc1ccc(-n2cc(C(=O)c3ccncc3)cn2)cc1 [Example 26, [1-(4-{3-[(2R)-2-methylpyrrolidin-1-yl]propoxy}phenyl)-1H-pyrazol-4-yl](pyridin-4-yl)methanone] |
| 1.8 nM | CC1CCCN1CCCOc1ccc(-n2cc(C(=O)NC(C)(C)C)cn2)cc1 (stereo not drawn) [Example 11, N-tert-butyl-1-{4-[3-(2-methylpyrrolidin-1-yl)propoxy]phenyl}-1H-pyrazole-4-carboxamide] |
| 1.6 nM | CC(=O)c1cnn(-c2ccc(OCCCN3CCC[C@H]3C)cc2)c1 [Example 27, 1-[1-(4-{3-[(2R)-2-methylpyrrolidin-1-yl]propoxy}phenyl)-1H-pyrazol-4-yl]ethanone] |
